Assay [1] has as its system cGAMP-stimulated THP1-Dual cells (pathway directly downstream of cGAS). Description: cGAMP stimulated counter cell assay: inhibition of IFN induction in cGAMP-stimulated THP1 cells (THP1(cGAMP) IC50). It counts as cell-based, human. The note with it: for IC50: read-out: THP1(cGAMP) IC50 (converted); for Ratio THP1(cGAMP) IC50 / THP1(vir) IC50: selectivity for cGAS inhibition. A digest of the protocol:
(§1)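 THP1-Dual cells with IRF-dependent Lucia luciferase reporter, stimulated by empty baculovirus (dsDNA delivery activating cGAS) or, for the counter assay, directly by cGAMP. 5000 cells/well, 8 concentrations from 10 μM top, 1% DMSO, 18 h at 37 °C; luminescence read, IC50 by 4-parameter logistic fit versus unstimulated low control.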

The target of the next assay is cGAS (Homo sapiens (Human), UniProt Q8N884). Kind of assay: Human cGAS enzyme assay (hcGAS IC50, in vitro), cGAMP formation by RapidFire MS.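 Further: enzyme activated by 45 bp dsDNA with GTP and ATP (30 µM each), 60 min compound pre-incubation then 90 min reaction, cGAMP relative to cyclic-di-GMP internal standard, 8-point dilutions up to 10 µM.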 It counts as biochemical.
For assay [2], the system named is cellular cGAS activity in dsDNA-stimulated human whole blood. Kind of assay: Human whole blood assay (hWB IC50): IFNα2α production after dsDNA transfection. It counts as cell-based. In a few lines: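 Citrated blood from healthy donors preincubated 60 min at room temperature with compound (top 10 µM, ~1:5 steps, 0.1% DMSO), then transfected with dsDNA/Fugene and incubated 22 h at 37 °C. Plasma IFNα2α measured by MSD immunoassay; IC50 from 4-parameter fit of % control (stimulated vs unstimulated).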

In assay [3] the test system is cellular cGAS activity in baculovirus-stimulated THP1-Dual cells (IRF dependent Lucia luciferase reporter). Description: Human cGAS cell assay: inhibition of IFN induction in virus-stimulated THP1 cells (THP1(vir) IC50). It counts as cell-based. A digest of the protocol: as §1
The mark [4] stands for this setting: Homo sapiens, THP1-Dual, inhibition of IFN induction in cGAMP-stimulated THP1 cells.
The mark [5] stands for this setting: biochemical (in vitro) cGAS inhibition.
Setting [6] is: inhibition of IFN induction in dsDNA-stimulated human whole blood.
[7] abbreviates: Homo sapiens, THP1-Dual, inhibition of IFN induction in virus-stimulated THP1 cells, read-out: THP1(vir) IC50.

Like-named read-outs stand apart in the source and are kept apart here.

Sequence of cGAS (Q8N884 whole entry): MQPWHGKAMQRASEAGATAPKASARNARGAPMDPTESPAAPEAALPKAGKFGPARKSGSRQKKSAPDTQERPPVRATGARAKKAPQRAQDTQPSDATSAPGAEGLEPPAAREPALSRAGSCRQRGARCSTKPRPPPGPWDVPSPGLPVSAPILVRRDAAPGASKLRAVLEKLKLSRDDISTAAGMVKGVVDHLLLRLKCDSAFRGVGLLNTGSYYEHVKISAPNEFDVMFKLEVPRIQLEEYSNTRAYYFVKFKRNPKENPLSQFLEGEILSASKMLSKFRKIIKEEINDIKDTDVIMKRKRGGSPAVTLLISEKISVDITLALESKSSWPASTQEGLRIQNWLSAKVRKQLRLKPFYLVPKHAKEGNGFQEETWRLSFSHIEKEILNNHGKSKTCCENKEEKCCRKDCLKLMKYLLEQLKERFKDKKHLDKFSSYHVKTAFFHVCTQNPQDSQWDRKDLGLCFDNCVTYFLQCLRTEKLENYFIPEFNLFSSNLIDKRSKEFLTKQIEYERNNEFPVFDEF

As a reminder, the IC50 is the concentration needed to halve the response being measured. Turning to `C[C@@H]1N(c2cc(-c3cccc(CO)c3)cnc2O[C@H]2C[C@@H](C(=O)O)N(c3nc(C(F)F)nc4c3oc3ccccc34)C2)CCOC12COC2` [Example 3.11], the IC50 in assay [1] (setting [4]) was 5290 nM; against cGAS (setting [5]), 4 nM; in assay [2] (setting [6]), 11 nM; in assay [3] (setting [7]), 5 nM. Also, in assay [1], the “Ratio THP1(cGAMP) IC50 / THP1(vir) IC50” value was determined as 1149.

Take `C[C@H]1COCCN1c1cc(Br)cnc1O[C@H]1C[C@@H](C(=O)O)N(c2nc(C(F)F)nc3c2oc2ccccc23)C1` [Example 1.28]: the IC50 in assay [1] (setting [4]) is over 16600 nM; on cGAS (setting [5]), 3 nM; in assay [2] (setting [6]), 629 nM; in assay [3] (setting [7]), 500 nM. Further, the “Ratio THP1(cGAMP) IC50 / THP1(vir) IC50” value in assay [1] is over 33.

For the compound `CC(=O)Nc1ccc(-c2cnc(O[C@H]3C[C@@H](C(=O)O)N(c4nc(C(F)(F)F)nc5c4oc4ccccc45)C3)c(N3CCOC4(COC4)[C@@H]3C)c2)cn1` [Example 3.10], the IC50 in assay [1] (setting [4]) is 7910 nM; against cGAS (setting [5]) it was 8 nM; in assay [2] (setting [6]), 10 nM; in assay [3] (setting [7]) it was 5 nM. In assay [1], the “Ratio THP1(cGAMP) IC50 / THP1(vir) IC50” value is 1713.

On to `C#Cc1cnc(O[C@H]2C[C@@H](C(=O)O)N(c3nc(C)nc4c3oc3cc(C(F)F)ccc34)C2)c(N2CCOC3(COC3)[C@@H]2C)c1` [Example 2.06], for which the IC50 in assay [1] (setting [4]) is 11900 nM; against cGAS (setting [5]), 4 nM; in assay [2] (setting [6]), 52 nM; in assay [3] (setting [7]) it was 63 nM. The “Ratio THP1(cGAMP) IC50 / THP1(vir) IC50” value in assay [1] was 189.

Consider `C#Cc1cnc(O[C@H]2C[C@@H](C(=O)O)N(c3nc(C(F)F)nc4c3oc3ccccc34)C2)c(N2CCOC[C@@H]2C)c1` [Example 1.31], for which the IC50 in assay [1] (setting [4]) is over 16600 nM; against cGAS (setting [5]) it was 3 nM; in assay [2] (setting [6]) it was 102 nM; in assay [3] (setting [7]) it was 232 nM. Moreover, in assay [1], the “Ratio THP1(cGAMP) IC50 / THP1(vir) IC50” value is over 72.

`C[C@@H]1N(c2cc(Cl)cnc2O[C@H]2C[C@@H](C(=O)O)N(c3nc(C(F)(F)F)nc4c3oc3ccccc34)C2)CCOC12COC2` [Example 1.13]: the IC50 in assay [1] (setting [4]) was 16400 nM; against cGAS (setting [5]) it was 4 nM; in assay [2] (setting [6]) it was 102 nM; in assay [3] (setting [7]), 40 nM. Besides, the “Ratio THP1(cGAMP) IC50 / THP1(vir) IC50” value in assay [1] is reported as 413.

`C[C@@H]1N(c2cc(-c3cccc(C(N)=O)c3)cnc2O[C@H]2C[C@@H](C(=O)O)N(c3nc(C(F)(F)F)nc4c3oc3ccccc34)C2)CCOC12COC2` [Example 3.13]: the concentration for half-maximal inhibition (IC50) in assay [1] (setting [4]) was 8350 nM; against cGAS (setting [5]), 9 nM; in assay [2] (setting [6]) it was 65 nM; in assay [3] (setting [7]), 25 nM. Further, in assay [1], the “Ratio THP1(cGAMP) IC50 / THP1(vir) IC50” value turned out to be 335.

Turning to `CCn1cc(-c2cnc(O[C@H]3C[C@@H](C(=O)O)N(c4nc(C(F)(F)F)nc5c4oc4ccccc45)C3)c(N3CCOC[C@@H]3C)c2)cn1` [Example 3.07], the half-inhibitory concentration (IC50) in assay [1] (setting [4]) is 12300 nM; against cGAS (setting [5]), 17 nM; in assay [2] (setting [6]), 1620 nM; in assay [3] (setting [7]) it was 748 nM. For the same compound, the “Ratio THP1(cGAMP) IC50 / THP1(vir) IC50” value in assay [1] is given as 16.

Take `C#Cc1cnc(O[C@H]2C[C@@H](C(=O)O)N(c3nc(C)nc4c3oc3ccccc34)C2)c(N2CCOC[C@@H]2C)c1` [Example 1.29]: the IC50 in assay [1] (setting [4]) was over 16600 nM; on cGAS (setting [5]), 4 nM; in assay [2] (setting [6]), 61 nM; in assay [3] (setting [7]) it was 296 nM. Further, the “Ratio THP1(cGAMP) IC50 / THP1(vir) IC50” value in assay [1] was over 56.

Take `C[C@@H]1N(c2cc(-c3cccc(C(N)=O)c3)cnc2O[C@H]2C[C@@H](C(=O)O)N(c3nc(C(F)F)nc4c3oc3ccccc34)C2)CCOC12COC2` [Example 3.24]: the concentration for half-maximal inhibition (IC50) in assay [1] (setting [4]) was 19200 nM; on cGAS (setting [5]), 6 nM; in assay [2] (setting [6]) it was 322 nM; in assay [3] (setting [7]), 57 nM. For the same compound, the “Ratio THP1(cGAMP) IC50 / THP1(vir) IC50” value in assay [1] is listed as 336.

Turning to `C[C@@H]1N(c2cc(-c3cn(C)cn3)cnc2O[C@H]2C[C@@H](C(=O)O)N(c3nc(C(F)(F)F)nc4c3oc3ccccc34)C2)CCOC12COC2` [Example 3.20], the IC50 in assay [1] (setting [4]) was 11500 nM; against cGAS (setting [5]), 3 nM; in assay [2] (setting [6]), 50 nM; in assay [3] (setting [7]), 30 nM. Besides, in assay [1], the “Ratio THP1(cGAMP) IC50 / THP1(vir) IC50” value turned out to be 383.

For `COC(=O)[C@@H]1C[C@H](Oc2ncccc2N2CCOC3(COC3)[C@@H]2C)CN1c1nc(C(F)F)nc2c1oc1ccccc12` [Example P01, Methyl (2S,4S)-4-({3-[(9S)-9-methyl-2,5-dioxa-8-azaspiro[3.5]nonan-8-yl]pyridin-2-yl}oxy)-1-[4-(difluoromethyl)-8-oxa-3,5-diazatricyclo[7.4.0.0^2,7]trideca-1(9),2(7),3,5,10,12-hexaen-6-yl]pyrrolidine-2-carboxylate], the IC50 in assay [1] (Homo sapiens, THP1-Dual, cGAMP-stimulated THP1 cells, counter assay) was 26100 nM; against cGAS (biochemical (in vitro), human cGAS, 45 bp dsDNA, GTP/ATP), over 9960 nM; in assay [2] (dsDNA-stimulated human whole blood, IFN induction) it was 1310 nM; in assay [3] (Homo sapiens, THP1-Dual, read-out: THP1(vir) IC50, virus-stimulated THP1 cells, IFN induction), 358 nM.

Take `C[C@@H]1N(c2cc(-c3ccnc(C#N)c3)cnc2O[C@H]2C[C@@H](C(=O)O)N(c3nc(C(F)F)nc4c3oc3ccccc34)C2)CCOC12COC2` [Example 3.21]: the IC50 in assay [1] (setting [4]) is 11700 nM; on cGAS (setting [5]), 4 nM; in assay [2] (setting [6]), 55 nM; in assay [3] (setting [7]), 24 nM. The “Ratio THP1(cGAMP) IC50 / THP1(vir) IC50” value in assay [1] came out at 483.

With `Cc1noc(C)c1-c1cnc(O[C@H]2C[C@@H](C(=O)O)N(c3nc(C(F)(F)F)nc4c3oc3ccccc34)C2)c(N2CCOC3(COC3)[C@@H]2C)c1` [Example 3.27], the IC50 in assay [1] (setting [4]) was 12500 nM; against cGAS (setting [5]) it was 21 nM; in assay [2] (setting [6]), 1860 nM; in assay [3] (setting [7]) it was 326 nM. Besides, the “Ratio THP1(cGAMP) IC50 / THP1(vir) IC50” value in assay [1] was 38.

Regarding `COc1cc(-c2cnc(O[C@H]3C[C@@H](C(=O)O)N(c4nc(C(F)(F)F)nc5c4oc4ccccc45)C3)c(N3CCOC4(COC4)[C@@H]3C)c2)c(F)cn1` [Example 3.25], the IC50 in assay [1] (setting [4]) is 9710 nM; at cGAS (setting [5]), 9 nM; in assay [2] (setting [6]), 96 nM; in assay [3] (setting [7]), 19 nM. Moreover, the “Ratio THP1(cGAMP) IC50 / THP1(vir) IC50” value in assay [1] was determined as 502.

As to `C[C@@H]1N(c2cc(-c3cncc(Cl)c3)cnc2O[C@H]2C[C@@H](C(=O)O)N(c3nc(C(F)(F)F)nc4c3oc3ccccc34)C2)CCOC12COC2` [Example 3.26], the IC50 in assay [1] (setting [4]) is 9240 nM; on cGAS (setting [5]), 11 nM; in assay [2] (setting [6]), 1370 nM; in assay [3] (setting [7]), 48 nM. In addition, in assay [1], the “Ratio THP1(cGAMP) IC50 / THP1(vir) IC50” value stood at 193.

As for `C#Cc1cnc(O[C@H]2C[C@@H](C(=O)O)N(c3nc(C)nc4c3oc3cc(Cl)ccc34)C2)c(N2CCOC3(COC3)[C@@H]2C)c1` [Example 2.07], the IC50 in assay [1] (setting [4]) was 14500 nM; against cGAS (setting [5]), 3 nM; in assay [2] (setting [6]), 28 nM; in assay [3] (setting [7]), 14 nM. Also, the “Ratio THP1(cGAMP) IC50 / THP1(vir) IC50” value in assay [1] is given as 1005.

As to “(2S,4S)-4-({3-[(95)-9-Methyl-2,5-dioxa-8-azaspiro[3.5]nonan-8-yl]-5-(pyrimidin-5-yl)pyridin-2-yl}oxy)-1-[4-(trifluoromethyl)-8-oxa-3,5-diazatricyclo[7.4.0.0^2,7]trideca-1(9),2(7),3,5,10,12-hexaen-6-yl]pyrrolidine-2-carboxylic acid [Example 7.01]”, the concentration for half-maximal inhibition (IC50) in assay [1] (inhibition of IFN induction in cGAMP-stimulated THP1 cells) is 9260 nM; at cGAS (setting [5]), 14 nM; in assay [2] (setting [6]), 50 nM; in assay [3] (inhibition of IFN induction in virus-stimulated THP1 cells, read-out: THP1(vir) IC50), 5 nM. The “Ratio THP1(cGAMP) IC50 / THP1(vir) IC50” value in assay [1] was 1700.
